Patent publication US20240239786A1, “COMPOSITIONS AND METHODS FOR THE TREATMENT AND PREVENTION OF CANCER” (Yale University, priority 2021, published 2024)

Columns and labels:
PEO4 cells = assay: Flow cytometric EdU incorporation (DNA synthesis) assay, PEO4; format: cell-based; settings: for time-dependent inhibition of DNA synthesis (EdU-positive cells): 30 μM DB4 or 1 μM triapine, 3, 6, 24 hr
Protocol: Cells were plated for 24 hr and then treated with 50 μM compounds for 72 hr. For a positive control, cells were treated with 1 μM triapine for 72 hr. The percentage of cell survival was determined by the MTS cytotoxicity assay. […] Cells were treated with 50 μM compounds or 1 μM triapine for 24 hr. During the last hour, cells were pulse-labeled with EdU, stained with the Click-iT EdU Alexa Fluor 488 Assay Kit, counterstained with 7-AAD, and subsequently analyzed by flow cytometry. EdU-positive cells were gated to determine the percentage of the S phase cell population. The bivariate plots of Alexa Fluor 488 (EdU-positive) and PE-Cy5 (7-AAD-positive) are shown. […] Cells were treated with 50 μM compounds or 1 μM triapine for 24 hr. During the last hour, cells were pulse-labeled with EdU, stained with the Click-iT EdU Alexa Fluor 488 Assay Kit, counterstained with 7-AAD, and subsequently analyzed by flow cytometry. EdU-positive cells were gated to determine the percentage of the S phase cell population. The percentages of DNA synthesis in cells treated with each of 10 compounds and triapine relative to the DMSO-treated control is calculated and shown. FIG. 2D depicts representative results of dNTP measurement on triapine and DB4 in PEO4 cells. Cells were treated with 1 μM triapine or 50 μM DB4 for 24 hr. Cells were extracted with 65% methanol for determination of each of dNTPs expressed as pmole/10^6 cells. Data are means±SD (N=3). *, p<0.05; **, p<0.01; ***, p<0.001, compared with the DMSO-treated control in each dNTP. […] The percentage of cell survival was determined by the MTS cytotoxicity assay. […]
PEO1 cells were treated with 30 μM DB4 or 1 μM triapine for indicated times, pulsed with EdU for 1 hr and subsequently assayed for DNA synthesis inhibition as described in FIG. 2B. […] Protein was analyzed by western blotting for p-Chk1, p-ATR, p-RPA32, γH2AX, and HSC70. […] DSB end resection is assessed by the level of p-RPA32. […]

CDK2 activity = assay: Western blot time course of CDK2 activity in PEO4 cells; format: cell-based; settings: for level of phosphorylated histone H1 (readout of CDK2 activity) / levels of cyclin A2 and CDK2 phosphorylation: 30 μM DB4 or 1 μM triapine; for levels of cyclin A2 and CDK2 phosphorylation: 24 hr
Protocol: PEO1 cells were treated with 30 μM DB4 or 1 μM triapine for indicated times, pulsed with EdU for 1 hr and subsequently assayed for DNA synthesis inhibition as described in FIG. 2B. The bivariate plots of Alexa Fluor 488 and PE-Cy5 were gated to determine % S phase cells. […] PEO4 cells were treated with 30 μM DB4 or 1 μM triapine for indicated times, pulsed with EdU for 1 hr and subsequently assayed for DNA synthesis inhibition as described in FIG. 2B. The bivariate plots of Alexa Fluor 488 and PE-Cy5 were gated to determine % S phase cells. […] The bivariate plots of Alexa Fluor 488 and PE-Cy5 shown in FIG. 6A and FIG. 6B were gated to determine % cells in G1, S, and G2/M phases. […] PEO4 cells were treated with 30 μM DB4 or 1 μM triapine for various time periods and subjected to western blot analysis for the levels of cyclin A2, p-CDK1/2, p-H1, p-Chk1, and HSC70. The HSC70 protein level was used as a loading control. Cropped gel images of protein bands are presented. Cyclin A2, p-CDK1/2, and p-H1 bands were from re-probing the same blot. p-Chk1 and HSC70 bands were from re-probing the same duplicated blot. […] The CDK2 activity is expressed by the percentage of the p-HI levels relative to that of the 0 hr control is shown. […] Protein was analyzed by western blotting for p-Chk1, p-ATR, p-RPA32, γH2AX, and HSC70. Cropped gel images of protein bands are presented. All protein bands were from re-probing the same blot. DSB end resection is assessed by the level of p-RPA32.
Additional studies focused on determining how DB4 inhibited CDK2 activity in comparison with triapine. […] In contrast, triapine increased the levels of cyclin A2 and CDK2 phosphorylation evidently at 24 hr. Because CDK2 phosphorylation is inhibitory, the level of phosphorylated histone H1, a substrate of CDK2, was determined as a readout of CDK2 activity (Lin Z P et al., 2014, Molecular Cancer Res, 12:381-393) to reconcile this discrepancy. […] The kinetics of CDK2 activity somewhat resembled to the level of DNA synthesis caused by DB4 and triapine.
The methodology was described previously (Lin Z P et al., 2014, Molecular Cancer Res, 12:381-393; Ratner E S et al., 2016, Br J Cancer, 114:777-786). The anti-HSC70 antibody was purchased from Santa Cruz (Santa Cruz, CA). Anti-cyclin A2, anti-phospho-ATR (Thr-1981), anti-phospho-Chk1 (Ser-345), anti-phospho-CDK1/2 (Tyr-15), and anti-Y-H2AX (Ser-139) antibodies were from Cell Signaling (Danvers, MA). Anti-phospho-RPA32 (S4/S8) and anti-BRCA2 antibodies were from Bethyl Laboratories (Montgomery, TX). Anti-phospho-histone H1 antibody was from Millipore-Sigma (Burlington, MA). To avoid the cross-reaction of secondary antibodies with previously probed primary antibodies, blots were stripped and re-probed with next primary antibodies raised in a different species in an alternate fashion. All images were acquired and processed using the G: BOX gel documentation system and the GeneSnap software (Syngene, Frederick, MD). Brightness and contrast of images were applied equally across the entire gel/blot image and to controls. Images of protein bands were cropped and only brightness-adjusted using the PowerPoint software (Microsoft, Redmond, WA). Quantification of the protein band intensity was performed using the ImageJ software (NIH, Bethesda, MD).

| Structure (SMILES) | time-dependent inhibition of DNA synthesis (EdU-positive cells) (PEO4 cells) | inhibition at 50 µM (PEO4 cells; 50 μM, 24 hr) [%] | level of phosphorylated histone H1 (readout of CDK2 activity) (CDK2 activity) | levels of cyclin A2 and CDK2 phosphorylation (CDK2 activity) | Chk1 phosphorylation (CDK2 activity; time course, drug alone) |
| --- | --- | --- | --- | --- | --- |
| C=CCn1c(SCc2cccc(Cl)c2)nnc1C1CCN(Cc2nc3ccccc3s2)CC1 [DB4, 2-[(4-{4-allyl-5-[(3-chlorobenzyl)thio]-4H-1,2,4-triazol-3-yl}-1-piperidinyl)methyl]-1,3-benzothiazole] | gradual decline in the EdU-positive cell population | > 99 | down-regulation of phosphorylated histone H1 at 24 hr | downregulated | did not induced Chk1 phosphorylation |
| NC(=S)NN=Cc1ncccc1N [triapine, 3-aminopyridine-2-carboxaldehyde-thiosemicarbazone, reference compound] | prompt reduction in EdU-positive cells | – | reduced the level of phosphorylated histone H1 earlier starting at 3 hr | increased | – |
